From patent publication US10703756B2, “Pyrrolo[2,3-D]pyrimidinyl, pyrrolo[2,3-B]pyrazinyl, pyrrolo[2,3-B]pyridinyl acrylamides and epoxides thereof” (Pfizer Inc., priority 2015, dated 2020)

Assays:
JAK3 enzyme [1] = target: T1, JAK3 enzyme (Homo sapiens, UniProt P52333); experiment: JAK Caliper Enzyme Assay at 4 μM ATP; type: biochemical
T1 sequence (P52333 1-1124): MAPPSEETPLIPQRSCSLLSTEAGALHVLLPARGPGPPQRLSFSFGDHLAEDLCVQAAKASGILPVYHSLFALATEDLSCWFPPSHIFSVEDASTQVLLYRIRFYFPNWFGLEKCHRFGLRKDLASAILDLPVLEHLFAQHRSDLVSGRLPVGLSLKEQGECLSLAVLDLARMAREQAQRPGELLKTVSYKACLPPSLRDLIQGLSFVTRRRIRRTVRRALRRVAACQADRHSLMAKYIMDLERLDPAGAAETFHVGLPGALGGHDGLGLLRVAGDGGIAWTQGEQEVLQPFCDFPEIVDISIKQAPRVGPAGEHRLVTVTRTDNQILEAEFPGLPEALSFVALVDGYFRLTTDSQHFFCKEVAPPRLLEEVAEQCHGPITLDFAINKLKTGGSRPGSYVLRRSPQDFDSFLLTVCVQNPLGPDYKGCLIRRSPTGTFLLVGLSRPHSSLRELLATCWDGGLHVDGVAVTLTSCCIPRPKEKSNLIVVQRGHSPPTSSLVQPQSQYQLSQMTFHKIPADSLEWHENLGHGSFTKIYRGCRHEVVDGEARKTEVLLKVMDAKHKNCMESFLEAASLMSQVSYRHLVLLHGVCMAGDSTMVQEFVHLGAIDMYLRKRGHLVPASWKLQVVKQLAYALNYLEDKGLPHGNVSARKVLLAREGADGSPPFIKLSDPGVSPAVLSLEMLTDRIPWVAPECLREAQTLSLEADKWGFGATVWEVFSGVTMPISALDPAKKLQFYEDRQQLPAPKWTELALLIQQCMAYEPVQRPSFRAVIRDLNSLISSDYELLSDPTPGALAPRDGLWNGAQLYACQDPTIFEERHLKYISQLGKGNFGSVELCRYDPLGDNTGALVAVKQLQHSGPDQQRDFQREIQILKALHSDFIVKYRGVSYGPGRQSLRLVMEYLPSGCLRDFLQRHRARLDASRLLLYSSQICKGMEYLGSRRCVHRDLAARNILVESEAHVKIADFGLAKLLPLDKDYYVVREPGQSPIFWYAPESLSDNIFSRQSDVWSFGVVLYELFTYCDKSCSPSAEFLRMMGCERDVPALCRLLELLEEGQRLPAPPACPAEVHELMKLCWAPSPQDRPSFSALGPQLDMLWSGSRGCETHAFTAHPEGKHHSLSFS
How it was run: (§1)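 Kinase activity is measured by separating phosphorylated from unphosphorylated peptide on a microfluidic chip. Per enzyme batch, protein concentration and incubation time are optimized to give 20%-30% substrate turnover.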

JAK3 enzyme [2] = target: T1, JAK3 enzyme; experiment: JAK Caliper Enzyme Assay at 1 mM ATP; type: biochemical
How it was run: as §1

[3] = system: IL-15 induced P-STAT5 in human PBMC; experiment: PBMC IL-15 Induced P-STAT5; type: cell-based; details: human PBMC, IL-15 final 41 ng/mL; read-out: PBMC IL15_pSTAT5_IC50
How it was run: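 Flow cytometry gated on total lymphocytes measured STAT5 staining (Alexa Fluor 647 antibody, overnight, 4 °C) in fixed, methanol-permeabilised human PBMC. Cells had received compound for 15 min at 37 °C (0.2% DMSO final), followed by 41 ng/mL final human IL-15 for 15 min.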

[4] = system: IL-15 induced STAT5 phosphorylation in human whole blood lymphocytes; experiment: HWB IL-15 Induced STAT5 Phosphorylation Assay; type: cell-based; details: Lymphocyte, IL-15 final 50 ng/ml, read-out: HWB_IL15 pSTAT5 IC50
Procedure: HWB IL-15 Induced STAT5 Phosphorylation Assay
After serial dilution of the test compounds 1:2 in DMSO at desired concentration (500× of final), the compounds were further diluted in PBS (by adding 4 μL compound/DMSO in 96 μL PBS, [DMSO]=4%, 20× final). To 96-well polypropylene plates were added 90 μl HWB (heparin treated Human Whole Blood)/well, followed by 5 μl/well 4% DMSO in D-PBS or various concentrations of 20× inhibitor in 4% DMSO in D-PBS (w/o Ca^+2 or Mg^+2) to give 1× in 0.2% DMSO. After mixing and incubating for 45 minutes at 37° C., 5 μl D-PBS (unstimulated control) or 20× stocks of 5 μl human IL-15 (final concentration is 50 ng/ml) were added, and mixed three times. After incubating 15 minutes at 37° C., 1× Lyse/Fix Buffer (BD Phosflow 5× Lyse/Fix Buffer) was added to all wells at 1000 μl/well, then incubated for 20 minutes at 37° C. and spun 5 mins at 1200 rpm. After washing in 1000 μl FACS buffer 1× and spinning for 5 mins at 1200 rpm, 400 μl ice cold Perm Buffer III were added to each well. After mixing gently (1-2×) and incubating on ice for 30 minutes, spinning for 5 mins at 1200 rpm without interruption, and washing 1× in cold […] FACS buffer (D-PBS containing 0.1% BSA and 0.1% sodium azide) 250 μl/well of the desired AlexaFluor647-conjugated anti-phospho STATS antibody at 1:125 dilution in FACS buffer was added. Following incubating at 4° C. over night, all the samples were transferred to 96-well polypropylene U-bottom plate, and checked by flow cytometry gated on total lymphocytes.

[5] = Stability of JAK3 Covalent Inhibitors in Human Whole Blood; type: in vitro ADME; details: both sexes, 1 μM test compound, 37° C., 180 min incubation, read-out: Human blood stability t1/2
How it was run: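 Parent remaining versus time was derived from LC-MS/MS peak area ratios to internal standard after acetonitrile quench. Incubations ran for 180 min at 37° C, in duplicate, with 1 μM test compound in pooled K2-EDTA human blood (two healthy donors).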

| IC50 (JAK3 enzyme [1]) [µM] | IC50 (JAK3 enzyme [2]) [µM] | IC50 [4] [µM] | half-life at 1 μM [5] [h] | SMILES | IC50 [3] [µM] |
| --- | --- | --- | --- | --- | --- |
| 0.000643 | 0.129 | 1.45 |  | C=CC(=O)N1CC[C@@H](Nc2cnc3[nH]cc(C(=O)N[C@@H]4C[C@H]4C(F)(F)F)c3n2)[C@@H](OC)C1 [Example 316, 2-{[(3S,4R)-1-acryloyl-3-methoxypiperidin-4-yl]amino}-N-[(1R,2R)-2-(trifluoromethyl)cyclopropyl]-5H-pyrrolo[2,3-b]pyrazine-7-carboxamide] | 0.294 |
| 0.000315 | 0.017 | 0.841 |  | C=CC(=O)N1CCN(c2cnc3[nH]cc(C(=O)NC4CCCC4)c3n2)CC1 (racemic) [Example 292, Racemic-2-(4-acryloylpiperazin-1-yl)-N-cyclopentyl-5H-pyrrolo[2,3-b]pyrazine-7-carboxamide] | 0.0277 |
| 0.000979 | 0.077 | 0.835 |  | C=CC(=O)N1CC[C@@H](Nc2cnc3[nH]cc(C(=O)NCC(F)(F)F)c3n2)[C@@H](OC)C1 [Example 317, 2-{[(3S,4R)-1-acryloyl-3-methoxypiperidin-4-yl]amino}-N-(2,2,2-trifluoroethyl)-5H-pyrrolo[2,3-b]pyrazine-7-carboxamide] | 0.315 |
| 0.000496 | 0.053 | 6.38 |  | C=CC(=O)N1CC[C@H](Nc2cnc3[nH]cc(C(=O)NCCC(F)(F)F)c3n2)[C@H](OC)C1 [Example 305, 2-{[(3R,4S)-1-acryloyl-3-methoxypiperidin-4-yl]amino}-N-(3,3,3-trifluoropropyl)-5H-pyrrolo[2,3-b]pyrazine-7-carboxamide] | 0.278 |
| 0.000494 | 0.007 | 0.688 |  | C=CC(=O)N1CCC(Nc2cnc3[nH]cc(C(=O)NCc4sc(C)nc4C(F)(F)F)c3n2)CC1 [Example 195, 2-[(1-acryloylpiperidin-4-yl)amino]-N-{[2-methyl-4-(trifluoromethyl)-1,3-thiazol-5-yl]methyl}-5H-pyrrolo[2,3-b]pyrazine-7-carboxamide] | 0.0827 |
| 0.000194 | 0.029 | 0.524 |  | C=CC(=O)N1CCN(c2cnc3[nH]cc(C(=O)NCC(C)(C)C)c3n2)CC1 [Example 304, 2-(4-acryloylpiperazin-1-yl)-N-(2,2-dimethylpropyl)-5H-pyrrolo[2,3-b]pyrazine-7-carboxamide] | 0.0968 |
| 0.000535 | 0.059 | 1.76 |  | C=CC(=O)N1CCN(c2cnc3[nH]cc(C(=O)N[C@H](CC)CC#N)c3n2)CC1(C)C [Example 318, 2-(4-acryloyl-3,3-dimethylpiperazin-1-yl)-N-[(2R)-1-cyanobutan-2-yl]-5H-pyrrolo[2,3-b]pyrazine-7-carboxamide] | 0.214 |
| 0.000431 | 0.044 | 3.03 |  | C=CC(=O)N1CCC(C)(Nc2cnc3[nH]cc(C(=O)NCC(C)C)c3n2)CC1 [Example 301, 2-[(1-acryloyl-4-methylpiperidin-4-yl)amino]-N-(2-methylpropyl)-5H-pyrrolo[2,3-b]pyrazine-7-carboxamide] | 0.387 |
| 0.00105 | 0.056 | 0.704 |  | C=CC(=O)N1CC[C@@H](Nc2cnc3[nH]cc(C(=O)N[C@@H](C)COC)c3n2)[C@@H](OC)C1 [Example 312, 2-{[(3S,4R)-1-acryloyl-3-methoxypiperidin-4-yl]amino}-N-[(2S)-1-methoxypropan-2-yl]-5H-pyrrolo[2,3-b]pyrazine-7-carboxamide] | 0.31 |
| 0.000343 | 0.031 | 0.765 |  | C=CC(=O)N1CCN(c2cnc3[nH]cc(C(=O)NCC(C)CC(F)(F)F)c3n2)CC1 (racemic) [Example 279, Racemic-2-(4-acryloylpiperazin-1-yl)-N-(4,4,4-trifluoro-2-methylbutyl)-5H-pyrrolo[2,3-b]pyrazine-7-carboxamide] | 0.107 |
| 0.000393 | 0.005 | 0.637 |  | C=CC(=O)N1CCC(Nc2cnc3[nH]cc(C(=O)NCC4CCC4)c3n2)CC1 [Example 193, 2-[(1-acryloylpiperidin-4-yl)amino]-N-(cyclobutylmethyl)-5H-pyrrolo[2,3-b]pyrazine-7-carboxamide] | 0.0684 |
| 0.000414 | 0.047 | 2.02 |  | C=CC(=O)N1CCC(Oc2cnc3[nH]cc(C(=O)N[C@@H]4CC[C@H](F)C4)c3n2)CC1 [Example 199, 2-[(1-acryloylpiperidin-4-yl)oxy]-N-[(1R,3S)-3-fluorocyclopentyl]-5H-pyrrolo[2,3-b]pyrazine-7-carboxamide] | 0.25 |
| 0.000287 | 0.045 | 1.97 |  | C=CC(=O)N1CCN(c2cnc3[nH]cc(C(=O)NCC(C)(C)C)c3n2)C[C@@H]1CC(C)C [Example 330, 2-[(3S)-4-acryloyl-3-(2-methylpropyl)piperazin-1-yl]-N-(2,2-dimethylpropyl)-5H-pyrrolo[2,3-b]pyrazine-7-carboxamide] | 0.122 |
| 0.000703 | 0.093 | 3.92 |  | C=CC(=O)N1CCN(c2cnc3[nH]cc(C(=O)NC4CCCC4)c3n2)CC1(C)C [Example 334, 2-(4-acryloyl-3,3-dimethylpiperazin-1-yl)-N-cyclopentyl-5H-pyrrolo[2,3-b]pyrazine-7-carboxamide] | 0.0736 |
| 0.000448 | 0.13 |  | 2.97 | C=CC(=O)N1CCC(N(C)c2cnc3[nH]cc(C(=O)NCC)c3n2)CC1 [Example 60, 2-[(1-acryloylpiperidin-4-yl)(methyl)amino]-N-ethyl-5H-pyrrolo[2,3-b]pyrazine-7-carboxamide] | 0.379 |
| 0.00157 | 0.109 |  | > 6 | C=CC(=O)N1CCN(c2cnc3[nH]cc(C(=O)N[C@@H]4COC[C@@H]4C4CC4)c3n2)CC1(C)C [Example 139, 2-(4-acryloyl-3,3-dimethylpiperazin-1-yl)-N-[(3S,4R)-4-cyclopropyltetrahydrofuran-3-yl]-5H-pyrrolo[2,3-b]pyrazine-7-carboxamide] | 0.711 |
| 0.00126 | 0.152 |  | 1.76 | C=CC(=O)N1C[C@@H](CO)C[C@@H](Nc2ncnc3[nH]ccc23)C1 (single isomer, unassigned) [Example 98] | 0.932 |
